# Experimental data: the supplement of paper PMC7224384
# Experiments:
# MDA-MB-453 [1] = experiment: drug sensitivity score (DSS), in combination with BLU9931 (DSS (weighted AUC score)); higher = more sensitive (stronger viability decrease); extreme values may be limits of the assay; conditions: BLU9931 100 nM; 72 h
# Outline: (§1)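 Drug sensitivity scores come from a weighted area under a four-parameter logistic fit to percent viability, normalised per plate to control wells. Viability was based on cellular ATP read with CellTiterGlo 2.0 after 72 h at 37 °C, 5% CO2. Each 384-well plate carried FIMM Oncology set compounds in singlicate at five 10-fold dilutions, with 2000 MDA-MB-453 cells per well in medium with or without an FGFR4 inhibitor at 100 nM final.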
# MDA-MB-453 [2] = experiment: drug sensitivity score (DSS), single agent (DSS (weighted AUC score)); higher = more sensitive (stronger viability decrease); extreme values may be limits of the assay; conditions: BLU9931 0 nM; 72 h
# Outline: as §1
SMILES,drug sensitivity score (MDA-MB-453 [1]),drug sensitivity score (MDA-MB-453 [2])
CN(C)C1CCN(C(=O)c2ccc(NC(=O)Nc3ccc(-c4nc(N5CCOCC5)nc(N5CCOCC5)n4)cc3)cc2)CC1 [Gedatolisib],23.7,22.9
Cc1nc(NC(=O)N2CCC[C@H]2C(N)=O)sc1-c1ccnc(C(C)(C)C(F)(F)F)c1 [Alpelisib],8,7.2
NC(=O)/C(=C/n1cnc(-c2cc(C(F)(F)F)cc(C(F)(F)F)c2)n1)c1cncnc1 [Eltanexor],14.2,13.8
CC#CC(=O)N1CC[C@@H](n2c(=O)n(-c3ccc(Oc4ccccc4)cc3)c3c(N)ncnc32)C1 [Tirabrutinib],6.3,5.7
COc1cccc(-c2ccc(NC(=O)C3=C(C(=O)O)CCC3)c(F)c2)c1 [Vidofludimus],0,0.4
C/C(=C\c1csc(C)n1)[C@@H]1C[C@@H]2O[C@]2(C)CCC[C@H](C)[C@H](O)[C@@H](C)C(=O)C(C)(C)[C@@H](O)CC(=O)N1 [Ixabepilone],4.1,5.6
COc1cccc2c1C(=O)c1c(O)c3c(c(O)c1C2=O)C[C@@](O)(C(=O)CO)C[C@@H]3O[C@H]1C[C@H](N)[C@H](O)[C@H](C)O1 [Doxorubicin],5.1,6.8
O=C(Nc1ccncc1)C(=O)c1cn(Cc2ccc(Cl)cc2)c2ccccc12 [Indibulin],5.3,9.1
C[C@@H]1COC(Nc2ccc3ncnc(Nc4ccc(OCc5nccs5)c(Cl)c4)c3c2)=N1 [Varlitinib],9.1,6.3
Nc1nc2cc(-c3ccc4ncc(C(=O)N5CCOCC5)n4c3)ccc2o1 [Serabelisib],9.8,7.8
N#CCNC(=O)c1ccc(-c2ccnc(Nc3ccc(N4CCOCC4)cc3)n2)cc1 [Momelotinib],2.2,4.7
O=C(c1ccc(C(=O)N2CCC(N3CCCC3)CC2)c(Nc2ccccc2)c1)N1CCC(N2CCCC2)CC1 [UNC1215],0,0
CC(C)(C)Cn1c(N)nc2ccc(-c3[nH]c(C(C)(C)C)nc3-c3ccc(F)cc3)nc21 [Ralimetinib],0.8,1.8
CO[C@H]1C[C@@H]2CC[C@@H](C)[C@@](O)(O2)C(=O)C(=O)N2CCCC[C@H]2C(=O)O[C@H]([C@H](C)C[C@@H]2CC[C@@H](OP(C)(C)=O)[C@H](OC)C2)CC(=O)[C@H](C)/C=C(\C)[C@@H](O)[C@@H](OC)C(=O)[C@H](C)C[C@H](C)/C=C/C=C/C=C/1C [Ridaforolimus],14.7,9.5
O=c1[nH]c(C2CCCN2)nc2c1oc1ccc(Cl)cc12 (stereo not drawn),0.5,0
C1=N/C2=N/c3ccc(OCCN4CCCC4)c(c3)COC/C=C/COCc3cccc(c3)C(=C1)N2 [Pacritinib],10,8.3
Nc1cc(F)ccc1NC(=O)/C=C/c1cnn(C/C=C/c2ccccc2)c1 [RGFP966],2.9,2.6
CNC(=O)c1ccccc1Nc1cc(Nc2ccc(N3CCOCC3)cc2OC)ncc1C(F)(F)F [VS-4718],0,1.9
COCCNCc1ccc(-c2cc3nccc(Oc4ccc(NC(=S)NC(=O)Cc5ccc(F)cc5)cc4F)c3s2)nc1 [Glesatinib],0.5,0.7
CCN(CC)CCNC(=O)c1c(C)[nH]c(/C=C2\C(=O)Nc3ccc(-c4csc(-c5ccccc5)n4)cc32)c1C [Amcasertib],1,2.5
COc1ccc(-c2nc(N3CCOCC3)c3sc(CN(C)c4ncc(C(=O)NO)cn4)cc3n2)cn1 [CUDC-907],40,38.8
Cc1cc(Nc2cc(N3CCN(C)CC3)nc(/C=C/c3ccccc3)n2)n[nH]1 [ENMD-2076],7.8,7.1
Cc1ncc(Cl)cc1NCc1ccc(C(=O)N[C@@H](CC2CCCC2)C(=O)NC2CC2)s1,0.5,0
CNC(=O)c1ccccc1Nc1nc(Nc2ccc3c(c2OC)CCC[C@H](N2CCN(CCO)CC2)C3)ncc1Cl,5.6,6.7
Nc1cc(F)ccc1NC(=O)c1ccc(CNC(=O)/C=C/c2cccnc2)cc1 [Tucidinostat],10.1,9.8
CC1(C)NC(=O)N(c2ccc([N+](=O)[O-])c(C(F)(F)F)c2)C1=O [Nilutamide],0,0
CCc1c(C(=O)C(N)=O)c2c(OCC(=O)O)cccc2n1Cc1ccccc1 [Varespladib],0.8,0

SMILES,drug sensitivity score (MDA-MB-453 [1]),drug sensitivity score (MDA-MB-453 [2])
CC(C)C[C@H](NC(=O)[C@@H](COC(C)(C)C)NC(=O)[C@H](Cc1ccc(O)cc1)NC(=O)[C@H](CO)NC(=O)[C@H](Cc1c[nH]c2ccccc12)NC(=O)[C@H](Cc1cnc[nH]1)NC(=O)[C@@H]1CCC(=O)N1)C(=O)N[C@@H](CCCNC(=N)N)C(=O)N1CCC[C@H]1C(=O)NNC(N)=O [Goserelin],0,0
CC(=O)[C@]1(O)Cc2c(O)c3c(c(O)c2[C@@H](O[C@H]2C[C@H](N)[C@H](O)[C@H](C)O2)C1)C(=O)c1ccccc1C3=O [Idarubicin],6.4,5.9
COc1cc2c(N3CCN(C(=O)Nc4ccc(OC(C)C)cc4)CC3)ncnc2cc1OCCCN1CCCCC1 [Tandutinib],0,0
O=C(CCCCCCC(=O)Nc1ccc([C@H]2O[C@@H](CSc3nc(-c4ccccc4)c(-c4ccccc4)o3)C[C@@H](c3ccc(CO)cc3)O2)cc1)NO [Tubacin],1.7,2
CCn1c(C(=O)N(C2CC2)C2CC2)cc2c3c(ncn3C)c(Nc3cc(C)n(C)n3)nc21,0,0
Nc1ccccc1NC(=O)c1ccc(CNC(=O)OCc2cccnc2)cc1 [Entinostat],8.7,9.2
CC(C)c1cc(C(=O)N2Cc3ccc(CN4CCN(C)CC4)cc3C2)c(O)cc1O [Onalespib],16.4,17
Cc1ccc(NC(=O)c2ccc(CN3CCN(C)CC3)cc2)cc1Nc1nccc(-c2cccnc2)n1 [Imatinib],0.1,0.9
COc1ccc(C[C@H](NC(=O)[C@H](C)NC(=O)CN2CCOCC2)C(=O)N[C@@H](Cc2ccccc2)C(=O)C2(C)CO2)cc1 (stereo in doubt) [ONX-0914],13.8,14.7
CC(C)C[C@H](NC(=O)CNC(=O)c1cc(Cl)ccc1Cl)B(O)O [Ixazomib],7.4,9.4
CC(C)(O)CNc1nc(Nc2ccnc(C(F)(F)F)c2)nc(-c2cccc(C(F)(F)F)n2)n1 [Enasidenib],0.1,0
CCOC(=O)C1=CCCC[C@H]1S(=O)(=O)Nc1ccc(F)cc1Cl [Resatorvid],0,0
CN1CCN(c2cc(C(=O)Nc3ccc4c(c3)-c3c(c(C(N)=O)nn3-c3ccc(F)cc3)CC4)c(Cl)cn2)CC1 [PHA 408],3.4,4.9
CN(C)Cc1c(C(=O)NCCOc2ccc(C(=O)NO)cc2)oc2ccccc12 [Abexinostat],22.3,22.6
Nc1ncn([C@H]2C[C@H](O)[C@@H](CO)O2)c(=O)n1 [Decitabine],0,0
Cn1ncc(Cl)c1-c1cc(C(=O)N[C@H](CN)Cc2ccc(F)c(F)c2)oc1Cl [Uprosertib],11.2,7.6
COc1cc2c(NC3CCN(C(C)C)CC3)nc(N3CCC(F)(F)CC3)nc2cc1OCCCN1CCCC1 [UNC0642],1.4,2.1
Cc1cccc(CC(=O)N2CCc3c2ccc(-c2cn(C)c4ncnc(N)c24)c3F)n1,0,2.2
Cc1ccc(=O)n(-c2ccccc2)c1 [Pirfenidone],0,0
c1cc(CN2CCCNCCNCCCNCC2)ccc1CN1CCCNCCNCCCNCC1 [Plerixafor],0,0
Cc1cc(Nc2ncnc3ccc(NC4=NC(C)(C)CO4)cc23)ccc1Oc1ccn2ncnc2c1 [Tucatinib],0.8,0.5
Cc1c(C(=O)Nc2ccc(N3C[C@@H](C)O[C@@H](C)C3)nc2)cccc1-c1ccc(OC(F)(F)F)cc1 [Sonidegib],1.4,5.8
CN1CCN(CCOc2cc(OC3CCOCC3)c3c(Nc4c(Cl)ccc5c4OCO5)ncnc3c2)CC1 [Saracatinib],3.6,1.5
CC1(C)CNc2cc(NC(=O)c3cccnc3NCc3ccncc3)ccc21 [Motesanib],0.3,1
CCC(C)(C)C(=O)O[C@H]1C[C@@H](C)C=C2C=C[C@H](C)[C@H](CC[C@@H]3C[C@@H](O)CC(=O)O3)[C@H]21 [Simvastatin],0.1,0
COc1ccc(CCc2nc3cc(-c4c(C)noc4C)ccc3n2C[C@H](C)N2CCOCC2)cc1Cl [SGC-CBP30],9.1,9
CCNCCS(=O)(=O)NC[C@@]1(c2ccccc2)SC(NC(=O)C(C)(C)C)=NN1C(=O)C(C)(C)C [Litronesib],13,17.3
